Source: ChEMBL document CHEMBL1201862, “PubChem BioAssay data set” (2004)
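Each compound was tested at five concentrations against cells in 96-well plates for 48 hours. GI50 = concentration required for 50% inhibition of growth.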 Active and inactive are the calls of the source. Rule as the data show it: active = GI50 up to about 1.1 µM and inactive = higher.

Key:
Assay in all cases: NCI anticancer screen, dose series, 48 h
RXF 393 = tested on: RXF 393
MCF7 = tested on: MCF7
SF-268 = tested on: SF-268
UACC-62 = tested on: UACC-62
UACC-257 = tested on: UACC-257
SK-MEL-5 = tested on: SK-MEL-5
SNB-19 = tested on: SNB-19
OVCAR-3 = tested on: OVCAR-3
BT-549 = tested on: BT-549
HCT-15 = tested on: HCT-15
COLO 205 = tested on: COLO 205
HCT-116 = tested on: HCT-116
OVCAR-5 = tested on: OVCAR-5
SF-539 = tested on: SF-539
M14 = tested on: M14
CCRF-CEM = tested on: CCRF-CEM
IGROV-1 = tested on: IGROV-1
OVCAR-4 = tested on: OVCAR-4
Hs-578T = tested on: Hs-578T
SK-OV-3 = tested on: SK-OV-3
OVCAR-8 = tested on: OVCAR-8
TK-10 = tested on: TK-10
HOP-62 = tested on: HOP-62
MOLT-4 = tested on: MOLT-4
U-251 = tested on: U-251
SN12C = tested on: SN12C
SK-MEL-2 = tested on: SK-MEL-2
ACHN = tested on: ACHN
SF-295 = tested on: SF-295
MDA-MB-231 = tested on: MDA-MB-231
HL-60 = tested on: HL-60
MDA-N = tested on: MDA-N
DU-145 = tested on: DU-145
NCI-H522 = tested on: NCI-H522
NCI-H226 = tested on: NCI-H226
PC-3 = tested on: PC-3
SK-MEL-28 = tested on: SK-MEL-28
MDA-MB-435 = tested on: MDA-MB-435
SR = tested on: SR
T47D = tested on: T47D
HOP-92 = tested on: HOP-92
A549 = tested on: A549
NCI-H460 = tested on: NCI-H460
RPMI-8226 = tested on: RPMI-8226
UO-31 = tested on: UO-31
KM12 = tested on: KM12
HT-29 = tested on: HT-29
K562 = tested on: K562
A498 = tested on: A498
SNB-75 = tested on: SNB-75
CAKI-1 = tested on: CAKI-1
SW-620 = tested on: SW-620
NCI-H23 = tested on: NCI-H23
NCI/ADR-RES = tested on: NCI/ADR-RES
786-0 = tested on: 786-0
EKVX = tested on: EKVX
Malme-3M = tested on: Malme-3M
HCC 2998 = tested on: HCC 2998
LOX IMVI = tested on: LOX IMVI
DMS-273 = tested on: DMS-273
M19-MEL = tested on: M19-MEL
SNB-78 = tested on: SNB-78
LXFL 529 = tested on: LXFL 529
DLD-1 = tested on: DLD-1

## COC(=O)NCCc1n[nH]c2c1C(=O)C=C(N1CCOCC1)C2=O
RXF 393
  GI50: > 100 µM (inactive)
MCF7
  GI50: > 100 µM (inactive)
SF-268
  GI50: > 100 µM (inactive)
UACC-62
  GI50: > 100 µM (inactive)
UACC-257
  GI50: > 100 µM (inactive)
SK-MEL-5
  GI50: > 100 µM (inactive)
SNB-19
  GI50: > 100 µM (inactive)
OVCAR-3
  GI50: > 100 µM (inactive)
BT-549
  GI50: > 100 µM (inactive)
HCT-15
  GI50: > 100 µM
COLO 205
  GI50: > 100 µM (inactive)
HCT-116
  GI50: > 100 µM (inactive)
OVCAR-5
  GI50: > 100 µM (inactive)
SF-539
  GI50: > 100 µM (inactive)
M14
  GI50: > 100 µM (inactive)
CCRF-CEM
  GI50: > 100 µM (inactive)
IGROV-1
  GI50: > 100 µM (inactive)
OVCAR-4
  GI50: > 100 µM (inactive)
Hs-578T
  GI50: > 100 µM (inactive)
SK-OV-3
  GI50: > 100 µM (inactive)
OVCAR-8
  GI50: > 100 µM (inactive)
TK-10
  GI50: > 100 µM (inactive)
HOP-62
  GI50: > 100 µM (inactive)
MOLT-4
  GI50: > 100 µM (inactive)
U-251
  GI50: > 100 µM (inactive)
SN12C
  GI50: > 100 µM (inactive)
SK-MEL-2
  GI50: > 100 µM (inactive)
ACHN
  GI50: > 100 µM (inactive)
SF-295
  GI50: > 100 µM (inactive)
MDA-MB-231
  GI50: > 100 µM (inactive)
HL-60
  GI50: > 100 µM (inactive)
MDA-N
  GI50: > 100 µM (inactive)
DU-145
  GI50: > 100 µM (inactive)
NCI-H522
  GI50: > 100 µM (inactive)
NCI-H226
  GI50: > 100 µM (inactive)
PC-3
  GI50: > 100 µM (inactive)
SK-MEL-28
  GI50: > 100 µM (inactive)
MDA-MB-435
  GI50: > 100 µM (inactive)
SR
  GI50: > 100 µM (inactive)
T47D
  GI50: > 100 µM (inactive)
HOP-92
  GI50: > 100 µM (inactive)
A549
  GI50: > 100 µM (inactive)
NCI-H460
  GI50: > 100 µM (inactive)
RPMI-8226
  GI50: > 100 µM (inactive)
UO-31
  GI50: > 100 µM (inactive)
KM12
  GI50: > 100 µM (inactive)
HT-29
  GI50: > 100 µM (inactive)
K562
  GI50: > 100 µM (inactive)
A498
  GI50: > 100 µM (inactive)
SNB-75
  GI50: > 100 µM (inactive)
CAKI-1
  GI50: > 100 µM (inactive)
SW-620
  GI50: > 100 µM (inactive)
NCI-H23
  GI50: > 100 µM (inactive)
NCI/ADR-RES
  GI50: > 100 µM (inactive)
786-0
  GI50: > 100 µM (inactive)
EKVX
  GI50: > 100 µM (inactive)
Malme-3M
  GI50: > 100 µM (inactive)
HCC 2998
  GI50: > 100 µM (inactive)
LOX IMVI
  GI50: > 100 µM (inactive)

## CNC(=S)N/N=C1\CC(c2ccccc2)Oc2ccccc21 (configuration not stated)
RXF 393
  GI50: > 100 µM (inactive)
SF-268
  GI50: > 100 µM (inactive)
DMS-273
  GI50: > 100 µM (inactive)
UACC-62
  GI50: > 100 µM (inactive)
SK-MEL-5
  GI50: 88.5 µM (inactive)
SNB-19
  GI50: > 100 µM (inactive)
OVCAR-3
  GI50: 34.8 µM (inactive)
COLO 205
  GI50: > 100 µM (inactive)
HCT-116
  GI50: > 100 µM (inactive)
M19-MEL
  GI50: 91.8 µM (inactive)
OVCAR-5
  GI50: > 100 µM (inactive)
SF-539
  GI50: > 100 µM (inactive)
M14
  GI50: > 100 µM (inactive)
CCRF-CEM
  GI50: > 100 µM (inactive)
IGROV-1
  GI50: > 100 µM (inactive)
OVCAR-4
  GI50: 18.6 µM (inactive)
SNB-78
  GI50: > 100 µM (inactive)
SK-OV-3
  GI50: > 100 µM (inactive)
OVCAR-8
  GI50: > 100 µM (inactive)
TK-10
  GI50: > 100 µM (inactive)
MOLT-4
  GI50: > 100 µM (inactive)
U-251
  GI50: > 100 µM (inactive)
SN12C
  GI50: > 100 µM (inactive)
SK-MEL-2
  GI50: > 100 µM (inactive)
LXFL 529
  GI50: > 100 µM (inactive)
ACHN
  GI50: > 100 µM (inactive)
SF-295
  GI50: > 100 µM (inactive)
NCI-H522
  GI50: > 100 µM (inactive)
NCI-H226
  GI50: 43.7 µM (inactive)
SK-MEL-28
  GI50: > 100 µM (inactive)
SR
  GI50: > 100 µM (inactive)
HOP-92
  GI50: 18.3 µM (inactive)
A549
  GI50: > 100 µM (inactive)
NCI-H460
  GI50: > 100 µM (inactive)
UO-31
  GI50: 8.11 µM (inactive)
KM12
  GI50: > 100 µM (inactive)
HT-29
  GI50: > 100 µM (inactive)
K562
  GI50: > 100 µM (inactive)
DLD-1
  GI50: > 100 µM (inactive)
SNB-75
  GI50: > 100 µM (inactive)
CAKI-1
  GI50: > 100 µM (inactive)
SW-620
  GI50: > 100 µM (inactive)
NCI-H23
  GI50: > 100 µM (inactive)
786-0
  GI50: > 100 µM (inactive)
EKVX
  GI50: > 100 µM (inactive)
Malme-3M
  GI50: > 100 µM (inactive)
HCC 2998
  GI50: > 100 µM (inactive)
LOX IMVI
  GI50: > 100 µM (inactive)
